# Measurements published in the supplement of paper PMC10307832.
# Assays:
# Experiment in all cases: relative viability (nuclei count vs DMSO), 5 days (fraction); higher = more cells survive
# Dabrafenib + Foretinib = compound: CC(C)(C)c1nc(-c2cccc(NS(=O)(=O)c3c(F)cccc3F)c2F)c(-c2ccnc(N)n2)s1 [Dabrafenib] + COc1cc2c(Oc3ccc(NC(=O)C4(C(=O)Nc5ccc(F)cc5)CC4)cc3F)ccnc2cc1OCCCN1CCOCC1 [Foretinib] (partner 0.25 µM)
# Method in brief: (§1)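 Relative viability was taken as the ratio of nuclei in treated wells to nuclei in vehicle wells. Lung cancer cell lines in 1536-well plates received compounds by pin tool one day after seeding, either one drug alone or a fixed anchor-drug dose plus five library-drug doses (not always all listed) in √10 steps. Nuclei were counted on 4× images after 5 days of treatment, and values are medians of duplicate plates.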
# VX-702 + OSI-027 = compound: NC(=O)c1ccc(N(C(N)=O)c2c(F)cccc2F)nc1-c1ccc(F)cc1F [VX-702] + COc1cccc2cc(-c3nc([C@H]4CC[C@H](C(=O)O)CC4)n4ncnc(N)c34)[nH]c12 [OSI-027] (partner 0.5 µM)
# Method in brief: as §1
# VX-702 + Lapatinib = compound: NC(=O)c1ccc(N(C(N)=O)c2c(F)cccc2F)nc1-c1ccc(F)cc1F [VX-702] + CS(=O)(=O)CCNCc1ccc(-c2ccc3ncnc(Nc4ccc(OCc5cccc(F)c5)c(Cl)c4)c3c2)o1 [Lapatinib] (partner 2 µM)
# Method in brief: as §1
# VX-702 + Pemetrexed = compound: NC(=O)c1ccc(N(C(N)=O)c2c(F)cccc2F)nc1-c1ccc(F)cc1F [VX-702] + Nc1nc2[nH]cc(CCc3ccc(C(=O)N[C@@H](CCC(=O)O)C(=O)O)cc3)c2c(=O)[nH]1 [Pemetrexed] (partner 0.2 µM)
# Method in brief: as §1
Cell Line,relative viability (Dabrafenib + Foretinib; first compound 0.009487 µM),relative viability (Dabrafenib + Foretinib; first compound 0.03 µM),relative viability (Dabrafenib + Foretinib; first compound 0.09487 µM),relative viability (Dabrafenib + Foretinib; first compound 0.3 µM),relative viability (VX-702 + OSI-027; first compound 0.02 µM),relative viability (VX-702 + OSI-027; first compound 0.2 µM),relative viability (VX-702 + OSI-027; first compound 0.6325 µM),relative viability (VX-702 + OSI-027; first compound 2 µM),relative viability (VX-702 + Lapatinib; first compound 0.02 µM),relative viability (VX-702 + Lapatinib; first compound 0.2 µM),relative viability (VX-702 + Lapatinib; first compound 0.6325 µM),relative viability (VX-702 + Lapatinib; first compound 2 µM),relative viability (VX-702 + Pemetrexed; first compound 0.02 µM),relative viability (VX-702 + Pemetrexed; first compound 0.2 µM),relative viability (VX-702 + Pemetrexed; first compound 0.6325 µM),relative viability (VX-702 + Pemetrexed; first compound 2 µM),relative viability (Dabrafenib + Foretinib; first compound 0.003 µM)
NCI-H596,0.928,0.575,0.686,0.861,0.807,0.737,0.797,0.823,1.09,1.01,1.13,1.1,0.535,0.455,0.567,0.534,
NCI-H647,1.16,1.01,1.05,1.38,0.719,0.997,0.709,0.662,1.15,0.935,1.24,1.25,0.174,0.172,0.133,0.144,1.35
NCI-H650,0.959,0.793,0.734,0.585,0.562,,0.567,0.595,0.876,,0.43,1.16,1.22,0.932,0.92,0.958,
NCI-H661,0.983,0.97,1.01,1.01,0.708,0.702,0.748,0.893,0.498,0.445,0.505,0.624,0.766,0.877,0.932,0.971,1.01
NCI-H838,1.06,0.801,0.923,1.1,0.394,0.356,0.448,0.409,1.06,1.01,1.13,1.35,0.234,0.24,0.254,0.236,1
NCI-H1355,0.981,0.935,0.809,0.947,0.419,0.427,0.371,0.405,1.09,0.984,0.998,1.28,1.05,1.01,1.02,1.09,
NCI-H1395,0.892,1.09,0.874,0.82,0.725,0.642,0.663,0.677,0.898,1.16,1.09,1.17,0.864,0.851,0.831,1.01,0.997
NCI-H1437,1.27,1.25,1.23,1.26,0.885,0.843,0.977,0.987,0.779,0.753,0.972,0.959,0.345,0.261,0.318,0.324,1.26
NCI-H1563,0.981,0.824,1.04,1.01,0.77,0.748,0.738,0.722,0.939,0.991,1.02,0.691,0.751,0.785,0.601,0.639,0.856
NCI-H1650,1.3,0.895,1.45,1.71,0.635,0.652,0.806,0.541,0.808,0.469,0.818,0.907,0.325,0.34,0.384,0.403,1.03
NCI-H1651,0.728,0.631,0.799,0.761,0.733,0.685,0.786,0.652,1.04,0.929,0.847,0.963,0.523,0.57,0.559,0.566,0.725
NCI-H1666,0.944,0.951,0.969,1.1,0.937,,0.789,0.635,0.828,0.583,0.711,0.438,0.869,0.869,0.89,0.808,0.907
NCI-H1734,0.963,0.73,0.811,0.965,0.635,0.591,0.527,0.45,0.541,0.961,1.05,0.917,0.386,0.377,0.413,0.409,
NCI-H1755,0.894,0.767,0.876,0.911,0.857,0.829,0.721,0.718,1.08,1.02,1.09,1.09,0.473,0.404,0.384,0.378,0.879
NCI-H1793,0.93,,,0.598,0.292,0.217,0.235,0.218,0.752,0.59,0.817,0.987,0.884,,0.806,1.06,
NCI-H1915,1.08,1.09,0.87,0.949,0.642,0.587,0.595,0.67,1.05,1,1,1.07,0.519,0.476,0.446,0.455,1.2
NCI-H1944,0.887,0.948,0.827,0.85,0.396,0.398,0.39,0.206,0.903,0.774,0.878,0.789,0.58,0.603,0.635,0.382,0.832
NCI-H1975,0.907,0.922,0.849,0.957,0.753,0.756,0.829,0.779,0.925,1.03,0.961,1.22,0.312,0.296,0.301,0.287,0.965

Cell Line,relative viability (Dabrafenib + Foretinib; first compound 0.009487 µM),relative viability (Dabrafenib + Foretinib; first compound 0.03 µM),relative viability (Dabrafenib + Foretinib; first compound 0.09487 µM),relative viability (Dabrafenib + Foretinib; first compound 0.3 µM),relative viability (VX-702 + OSI-027; first compound 0.02 µM),relative viability (VX-702 + OSI-027; first compound 0.2 µM),relative viability (VX-702 + OSI-027; first compound 0.6325 µM),relative viability (VX-702 + OSI-027; first compound 2 µM),relative viability (VX-702 + Lapatinib; first compound 0.02 µM),relative viability (VX-702 + Lapatinib; first compound 0.2 µM),relative viability (VX-702 + Lapatinib; first compound 0.6325 µM),relative viability (VX-702 + Lapatinib; first compound 2 µM),relative viability (VX-702 + Pemetrexed; first compound 0.02 µM),relative viability (VX-702 + Pemetrexed; first compound 0.2 µM),relative viability (VX-702 + Pemetrexed; first compound 0.6325 µM),relative viability (VX-702 + Pemetrexed; first compound 2 µM),relative viability (Dabrafenib + Foretinib; first compound 0.003 µM)
NCI-H1993,0.852,0.64,0.71,0.901,0.516,0.518,0.563,0.579,0.811,0.827,0.827,0.743,0.646,0.529,0.523,0.563,0.762
NCI-H2009,1.18,1.24,0.995,0.911,0.688,0.88,0.774,0.801,1.14,0.931,1.01,1.08,1.12,1.08,1.03,1.15,1.21
NCI-H2023,0.922,0.796,0.877,1.02,0.349,0.445,0.441,0.416,0.729,0.504,0.712,0.977,0.231,0.264,0.199,0.198,0.866
NCI-H2085,0.975,0.981,0.899,1.08,0.87,0.636,0.726,0.627,0.81,0.739,0.767,0.808,0.82,0.957,0.949,0.852,0.984
NCI-H2087,1.04,0.988,0.959,1.09,0.55,0.471,0.48,0.497,1.28,1.1,1.1,1.16,0.703,0.657,0.681,0.656,
NCI-H2126,1.22,1.15,1,1.43,0.774,0.593,0.693,0.713,0.752,0.763,0.74,0.824,0.717,0.659,0.676,0.624,1.15
NCI-H2170,0.539,0.961,1.01,1.11,0.746,0.693,0.698,0.762,0.278,0.284,0.273,0.299,0.275,0.264,0.309,0.278,1.03
NCI-H2228,0.95,0.797,0.749,0.97,0.649,0.514,0.534,0.683,0.851,1.04,1.04,1.33,0.338,0.336,0.37,0.342,
NCI-H2347,1.01,,,0.932,0.491,,0.494,0.336,0.996,0.813,0.891,0.902,0.425,0.43,0.438,0.415,
NCI-H2405,0.985,,0.949,1.07,0.677,0.641,0.544,0.668,1.23,0.761,1.02,1.46,1.11,1.04,1.04,1.2,
NCI-H3122,0.959,0.935,0.904,0.97,0.922,0.874,0.917,1.05,1.07,0.977,1.04,1.03,0.21,0.194,0.199,0.187,1.04
PC-3 [JPC-3],1.09,1.1,0.997,1.01,0.8,0.768,0.818,0.644,0.468,0.461,0.442,0.414,1.23,1.08,1.23,1.07,1
PC-14,0.972,0.933,0.979,0.958,0.893,0.966,0.849,0.806,0.363,0.245,0.311,0.29,0.142,0.15,0.124,0.119,0.861
RERF-LC-KJ,0.859,0.845,0.935,1.09,0.608,0.547,0.57,0.534,0.891,0.801,0.888,0.933,0.504,0.6,0.484,0.454,0.854
SK-LU-1,0.848,0.633,0.64,0.757,0.386,0.341,0.339,0.354,1.09,0.885,0.887,1.29,1.01,0.965,0.936,1.04,
SK-MES-1,0.905,1,0.796,0.995,0.669,0.666,0.584,0.542,0.449,0.407,0.458,0.43,0.936,0.89,0.891,0.979,0.653
SW 1573,0.992,0.806,1.01,1.05,0.715,0.636,0.504,0.482,1.05,1.13,1.05,0.919,0.759,0.914,0.775,0.741,0.757
UMC-11,1.12,1.06,0.984,1.13,0.482,0.446,0.458,0.533,0.866,0.908,0.769,1.04,0.908,0.711,0.755,0.922,1.13
